Measured values taken from ChEMBL document CHEMBL1151189, “Antimicrobial chlorinated bibenzyls from the liverwort Riccardia marginata” (2004).
Activity calls are given as the source filed them. The rule behind the calls is not given here.

What was measured:
[1] = system: Candida albicans; experiment: Antimicrobial activity against Candida albicans at 30 ug/disk; format: functional; conditions: read-out: IZ
[2] = system: Trichophyton mentagrophytes; experiment: Antimicrobial activity against Trichophyton mentagrophytes at 30 ug/disk; format: functional; conditions: read-out: IZ
[3] = system: Amorphotheca resinae; experiment: Antimicrobial activity against Cladosporium resinae at 30 ug/disk; format: functional; conditions: read-out: IZ
[4] = system: Escherichia coli; experiment: Antimicrobial activity against Escherichia coli; format: functional, organism-based
[5] = system: Bacillus subtilis; experiment: Antimicrobial activity against Bacillus subtilis at 30 ug/5 mm disk; format: functional
[6] = system: Bacillus subtilis; experiment: Antimicrobial activity against Bacillus subtilis at 30 ug/disk; format: functional; conditions: read-out: IZ

SMILES	zone of inhibition at 30 µg/disc [1] [mm]	zone of inhibition at 30 µg/disc [2] [mm]	zone of inhibition at 30 µg/disc [3] [mm]	Activity [4]	inhibition zone (IZ) [5] [mm]	zone of inhibition at 30 µg/disc [6] [mm]
Oc1c(Cl)cc(Cl)c(CCc2ccccc2)c1Cl	2	7	1	inactive	2	
Oc1cccc(CCc2ccccc2)c1Cl	2	3	0	inactive		2
Oc1c(Cl)ccc(CCc2ccccc2)c1Cl	2	12	2	inactive		2
